Data on four compounds can be found in publication PMC10146558, “Highly Cytotoxic Copper(II) Mixed-Ligand Quinolinonato Complexes: Pharmacokinetic Properties and Interactions with Drug Metabolizing Cytochromes P450” (Pharmaceutics, 2023).

The test system of one data set is cytochrome P450. Set-up: method as in PMID 26911729. To be noted: ref [50]; cited from earlier work.
In a further data set the test system is CYP3A4/5. Put plainly: CYP3A4/5 activity (testosterone 6β-hydroxylation) in human liver microsomes.
The target in another data set is T1, CYP2C19 (Homo sapiens, UniProt P33261).
T1 construct: Cryopreserved pooled human liver microsomes were obtained from Xenotech; tissue Xenotech (Lenexa, KS, USA); host or cells: pooled human liver microsomes
Put plainly: CYP2C19 activity ((S)-mephenytoin 4′-hydroxylation) in human liver microsomes. Format: biochemical. Particulars: free ligand, up to 100 μM.

In data set [1] the test system is human liver microsomal cytochrome P450s.
Procedure: (§1) The cuvette contained microsomes diluted to final concentration of CYP 1 µM in 50 mM potassium phosphate buffer (pH 7.4). The tested compounds were dissolved in the same buffer, and their concentrations in the experiments ranged from 0.002 to 33.310 µM. The UV-Visible spectra were recorded at room temperature by repetitive scanning between 300 and 700 nm using Varian 500 UV/VIS spectrophotometer (Agilent Technologies, Wakefield, MA, USA). Changes of absorbance in the range of the Soret’s region (380–450 nm) were plotted against the concentration of the studied compounds. Data were analysed using GraphPad Prism 6 software (La Jolla, CA, USA).
Another data set concerns the target CYP3A4 (Homo sapiens, UniProt P08684). Put plainly: CYP3A4 activity (midazolam 1′-hydroxylation) in human liver microsomes. Particulars: Dixon and Lineweaver–Burk plots.
The test system of data set [2] is human liver microsomal cytochrome P450s. Put plainly: Difference spectra (UV-visible spectral titration) with human liver microsomes. To be noted: read-out: Ks (spectral binding constant); spectral differences at 386 nm, CYP 1 µM, pH 7.4, room temperature.
Procedure: as §1

Chain of CYP3A4 (P08684 2-503): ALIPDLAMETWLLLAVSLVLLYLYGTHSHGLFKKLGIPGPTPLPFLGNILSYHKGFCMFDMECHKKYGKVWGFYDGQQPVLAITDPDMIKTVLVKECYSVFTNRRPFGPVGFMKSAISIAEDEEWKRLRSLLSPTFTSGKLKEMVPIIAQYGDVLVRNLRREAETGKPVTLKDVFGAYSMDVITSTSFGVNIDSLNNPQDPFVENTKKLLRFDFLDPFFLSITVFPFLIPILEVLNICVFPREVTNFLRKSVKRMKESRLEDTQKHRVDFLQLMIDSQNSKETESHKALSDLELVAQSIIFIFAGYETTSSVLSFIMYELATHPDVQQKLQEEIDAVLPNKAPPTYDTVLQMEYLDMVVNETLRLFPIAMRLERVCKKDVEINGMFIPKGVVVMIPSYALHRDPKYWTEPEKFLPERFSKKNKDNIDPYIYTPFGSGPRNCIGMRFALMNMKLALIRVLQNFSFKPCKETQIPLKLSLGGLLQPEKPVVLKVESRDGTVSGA
T1 sequence (P33261 whole entry): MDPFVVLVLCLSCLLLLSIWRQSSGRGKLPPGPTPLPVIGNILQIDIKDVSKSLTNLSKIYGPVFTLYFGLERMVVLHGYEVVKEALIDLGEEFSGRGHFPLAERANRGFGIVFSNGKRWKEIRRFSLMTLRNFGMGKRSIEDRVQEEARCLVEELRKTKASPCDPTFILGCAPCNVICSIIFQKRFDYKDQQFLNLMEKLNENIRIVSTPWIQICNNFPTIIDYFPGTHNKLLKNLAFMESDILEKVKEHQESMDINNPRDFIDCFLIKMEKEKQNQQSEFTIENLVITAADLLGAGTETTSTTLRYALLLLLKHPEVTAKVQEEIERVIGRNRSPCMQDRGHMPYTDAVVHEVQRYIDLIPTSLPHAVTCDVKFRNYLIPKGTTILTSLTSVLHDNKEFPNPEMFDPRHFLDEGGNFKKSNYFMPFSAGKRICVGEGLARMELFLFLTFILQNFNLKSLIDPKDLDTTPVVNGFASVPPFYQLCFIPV
Procedure for CYP2C19: For each enzyme assay, the preliminary experiments to determine Michaelis constant (Km) and limiting velocity (Vmax) were performed to calculate the time of incubation (the specified time for which the reaction is still linear) and the values of substrate concentration (in the range corresponding to the value of Km).
The reaction mixtures were buffered by 0.1 M potassium phosphate buffer (pH 7.4) and contained a NADPH-generating system consisting of the isocitrate dehydrogenase (6 U/mL), NADP^+ (0.5 mM), isocitric acid (4 mM), and MgSO4 (5 mM). The final concentration levels of complexes were obtained by diluting a 10 mM solution with dimethyl sulfoxide (DMSO). It is known that DMSO can in some cases inhibit P450; the following measures were thus applied: (a) control samples containing organic solvent without the tested compounds were prepared and used as references; (b) DMSO levels were maintained below 0.1% to minimise the inhibition. Inhibition experiments were performed using five concentration levels of the tested compounds in the range of 10–100 µM. The maximum concentration was chosen so that in the case of inhibition, it would be possible to determine the inhibitory effect of the complexes and characterise them by determining the IC50 value. Additionally, an inhibitor-free control was used as a reference. Incubations were executed in two independent batches, and the samples were prepared and measured in triplicate at 37 °C. Analyses of the metabolites formed from the specific substrates were performed by HPLC using the Prominence system (Shimadzu, Kyoto, Japan) equipped with a LiChroCART 250-4 LiChrospher 100 RP-18 column, Chromolith® HighResolution RP-18 end-capped column (Merck, Darmstadt, Germany), or Kinetex Biphenyl column (Phenomenex, Torrace, CA, USA).
The apparent Ki values were determined by additional measurements using substrate concentrations corresponding to 1/2 Km, Km, 2 Km, and 4 Km in the case of inhibition. The type of model was selected on the basis of the Lineweaver–Burk and Dixon plots. The values of IC50 were obtained by analysing the plot of the percentage of activity remaining after inhibition versus the logarithm of the inhibitor concentration using the GraphPad Prism 6 software (La Jolla, CA, USA).
Procedure for CYP3A4/5: For each enzyme assay, the preliminary experiments to determine Michaelis constant (Km) and limiting velocity (Vmax) were performed to calculate the time of incubation (the specified time for which the reaction is still linear) and the values of substrate concentration (in the range corresponding to the value of Km). The amount of human liver microsomes (HLM; expressed as the amount of CYP in pmol and the concentration of HLM protein in mg/mL in the reaction vessel) in the reaction was determined using previously established protocols [40].
The reaction mixtures were buffered by 0.1 M potassium phosphate buffer (pH 7.4) and contained a NADPH-generating system consisting of the isocitrate dehydrogenase (6 U/mL), NADP^+ (0.5 mM), isocitric acid (4 mM), and MgSO4 (5 mM). The final concentration levels of complexes were obtained by diluting a 10 mM solution with dimethyl sulfoxide (DMSO). It is known that DMSO can in some cases inhibit P450; the following measures were thus applied: (a) control samples containing organic solvent without the tested compounds were prepared and used as references; (b) DMSO levels were maintained below 0.1% to minimise the inhibition. Inhibition experiments were performed using five concentration levels of the tested compounds in the range of 10–100 µM. The maximum concentration was chosen so that in the case of inhibition, it would be possible to determine the inhibitory effect of the complexes and characterise them by determining the IC50 value. Additionally, an inhibitor-free control was used as a reference. Incubations were executed in two independent batches, and the samples were prepared and measured in triplicate at 37 °C.
The type of model was selected on the basis of the Lineweaver–Burk and Dixon plots. The values of IC50 were obtained by analysing the plot of the percentage of activity remaining after inhibition versus the logarithm of the inhibitor concentration using the GraphPad Prism 6 software (La Jolla, CA, USA).

For the compound `CC(=O)CC(C)=O.Cc1ccnc2c1ccc1c(C)ccnc12.O=[N+]([O-])[O-].O=[N+]([O-])[O-].[Cu+2]` [[Cu(acac)(4,7-dimethyl-1,10-phenanthroline)(H2O)](NO3)2], the IC50 with cytochrome P450 was around 10 µM.
Turning to `O=c1c(O)c(-c2ccccc2)[nH]c2ccccc12` [Hqui, 2-phenyl-3-hydroxy-1H-quinolin-4-one, reference compound], the “CYP3A4/5 activity remaining (testosterone 6β-hydroxylation), % of basal activity” value in the data set with CYP3A4/5 (at 100 μM) is given as “ca. 60%”. For the same compound, the “Decrease in CYP2C19 activity” value at CYP2C19 is reported as 66%. In addition, the “Changes in difference spectra on interaction with microsomal CYPs” value in data set [1] is listed as “no significant changes”.
Take `Cc1cc2cccnc2c2ncccc12` [mphen, 5-methyl-1,10-phenanthroline]: the “Changes in difference spectra on interaction with microsomal CYPs” value in data set [1] is reported as “no significant changes”.
`O.O.O.O=[N+]([O-])[O-].O=[N+]([O-])[O-].[Cu+2]` [copper(II) nitrate trihydrate, reference compound]: the Ki in the data set with CYP3A4/5 (read-out: Ki CYP3A4/5 (testosterone 6β-hydroxylation assay), Dixon and Lineweaver–Burk plots, substrate ½ Km to 4 Km) amounted to 1.56 ± 0.25 µM; at CYP3A4 (read-out: Ki CYP3A4 (midazolam 1′-hydroxylation assay), substrate ½ Km to 4 Km) it was 8.25 ± 1.64 µM. Also, on CYP3A4, the “Type of inhibition, CYP3A4 (midazolam 1′-hydroxylation)” value is listed as “non-competitive”. Moreover, the Kd in data set [2] was 9.81 ± 0.6 µM.
